According to PubChem BioAssay (NCI):
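Compound exposure: 48 hours, 5 concentrations, 96-well plates. The concentration for full growth arrest is given as TGI.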

Columns and labels:
Experiment in all cases: inhibition of tumour cell growth, NCI panel, 48 h
MCF7 breast = test system: MCF7 breast
RPMI-8226 leukemia = test system: RPMI-8226 leukemia
SNB-75 CNS = test system: SNB-75 CNS
SNB-19 CNS = test system: SNB-19 CNS
DU-145 prostate = test system: DU-145 prostate
HCC-2998 colon = test system: HCC-2998 colon
RXF 393 renal = test system: RXF 393 renal
BT-549 breast = test system: BT-549 breast
NCI-H226 lung = test system: NCI-H226 lung
NCI-H522 lung = test system: NCI-H522 lung
SN12C renal = test system: SN12C renal
IGROV1 ovarian = test system: IGROV1 ovarian
SK-MEL-5 melanoma = test system: SK-MEL-5 melanoma
SK-MEL-28 melanoma = test system: SK-MEL-28 melanoma
UACC-257 melanoma = test system: UACC-257 melanoma
SK-OV-3 ovarian = test system: SK-OV-3 ovarian
MOLT-4 leukemia = test system: MOLT-4 leukemia
T-47D breast = test system: T-47D breast
OVCAR-8 ovarian = test system: OVCAR-8 ovarian

| SMILES | TGI (MCF7 breast) [µM] | TGI (RPMI-8226 leukemia) [µM] | TGI (SNB-75 CNS) [µM] | TGI (SNB-19 CNS) [µM] | TGI (DU-145 prostate) [µM] | TGI (HCC-2998 colon) [µM] | TGI (RXF 393 renal) [µM] | TGI (BT-549 breast) [µM] | TGI (NCI-H226 lung) [µM] | TGI (NCI-H522 lung) [µM] | TGI (SN12C renal) [µM] | TGI (IGROV1 ovarian) [µM] | TGI (SK-MEL-5 melanoma) [µM] | TGI (SK-MEL-28 melanoma) [µM] | TGI (UACC-257 melanoma) [µM] | TGI (SK-OV-3 ovarian) [µM] | TGI (MOLT-4 leukemia) [µM] | TGI (T-47D breast) [µM] | TGI (OVCAR-8 ovarian) [µM] |
| --- | --- | --- | --- | --- | --- | --- | --- | --- | --- | --- | --- | --- | --- | --- | --- | --- | --- | --- | --- |
| CC(=O)OCC1OC(OC2CC3C(C)(C)C(=O)CC[C@]3(C)C3CC[C@]45C[C@]4(CCC5[C@@H](C)CC(O)C(O)C(C)(C)O)[C@]23C)C(O)C(O)C1O (stereo partly drawn) | 16.7 | 17.2 | 18.8 | 23.3 | 30.9 | 21.7 | 21.9 | 25.9 | 30.6 | 22.7 | 26.4 | 23.2 | 20.3 | 12.6 | 23.6 | 28.9 | 15.6 | 18.8 | 26.5 |
| COc1cc(CNC(=O)CCCCCCCCCCSSCCCCCCCCCCC(=O)NCc2ccc(O)c(OC)c2)ccc1O | > 10 | > 10 | > 10 | > 10 | > 10 | > 10 | > 10 | > 10 | > 10 | > 10 | > 10 | > 10 | > 10 | > 10 | > 10 | > 10 | > 10 | > 10 | > 10 |
| CCNC(=O)Cc1nc2c(=O)[nH]cnc2n1C1OC(CO)C(O)C1O (stereo not drawn) | > 100 | > 100 | > 100 | > 100 | > 100 | > 100 | > 100 | > 100 | > 100 | > 100 | > 100 | > 100 | > 100 | > 100 | > 100 | > 100 | > 100 | > 100 | > 100 |
| CN(CCNC(=O)c1cc(-c2ccccc2)nc2ccccc12)CCNC(=O)c1cc(-c2ccccc2)nc2ccccc12 | 42 | > 100 | 39.9 | > 100 | > 95.5 | 5.54 | > 57.7 | > 100 | 55.5 | > 47.5 | > 100 | > 100 | 5.7 | 5.29 | 10.2 | > 100 | > 100 | > 100 | > 100 |
| Clc1ccc(CSCc2ccc(Cl)cc2Cl)c(Cl)c1 | 86.9 | 88.6 | 89 | > 100 | > 100 | 98.2 | 94.2 | > 100 | > 100 | 74 | > 100 | > 100 | 97.9 | > 100 | 64.7 | > 100 | > 100 | > 100 | > 100 |
| CN(C)CC1CN(C(=O)Nc2ccccc2)C(=N)O1 (stereo not drawn) | > 100 | > 100 | > 100 | > 100 | > 100 | > 100 | > 100 | > 100 | > 100 | > 100 | > 100 | > 100 | > 100 | > 100 | > 100 | > 100 | > 100 | > 100 | > 100 |
| Nc1nc(Cl)cc(NCC2(CO)CC(Cc3ccccc3)C2)n1 (stereo not drawn) | > 77.7 | > 62.9 | > 100 | > 100 | > 100 | > 88.6 | > 93.5 | > 80.5 | > 91.1 | > 100 | > 100 | > 100 | > 41.9 | > 100 | > 82.3 | > 100 | > 71.4 | > 65.4 | > 100 |
